Assay results taken from the NIST ThermoML archive (doi:10.1021/acs.jced.8b00236).
“And” between values parts separate entries of the source, which are not always exact repeats. Equal entries are not always repeated.

Legend:
[1] = mn = molality of the nth substance listed, in mol/kg; conditions: 75 kPa, Liquid; for viscosity: Capillary tube (Ostwald / Ubbelohde) method; for speed of sound: Frequency=3 MHz, Single path-length method; for mass density: Vibrating tube method
[2] = 75 kPa, Liquid, Capillary tube (Ostwald / Ubbelohde) method

O [water] + NCCC(=O)O
[1], m2 = 0
Conditions	viscosity [mPa·s]
288.15 K	1.146
293.15 K	1.004
298.15 K	0.8929
303.15 K	0.7965
308.15 K	0.7187

O [water] + NCC(=O)O
[1], m2 = 0
Conditions	viscosity [mPa·s]
288.15 K	1.146
293.15 K	1.007
298.15 K	0.893
303.15 K	0.797
308.15 K	0.719

[Cl-].[Na+] [sodium chloride] + O
[1]
Conditions	mass density, m1 = 0.15	mass density, m1 = 0.25	speed of sound, m1 = 0.15	speed of sound, m1 = 0.25	viscosity, m1 = 0.15	viscosity, m1 = 0.25 [mPa·s]
288.15 K	1005.46 kg/m3 and 1005.45 kg/m3 and 1005.36 kg/m3	1009.51 kg/m3	1476.6 m/s and 1476.5 m/s	1483.6 m/s and 1483.4 m/s and 1483.3 m/s	1.156 mPa·s and 1.158 mPa·s	1.166
293.15 K	1004.48 kg/m3 [middle of 4 runs]	1008.5 kg/m3 and 1008.51 kg/m3	1492.3 m/s and 1492.2 m/s	–	1.016 mPa·s	1.025
298.15 K	1003.26 kg/m3 and 1003.27 kg/m3 and 1003.18 kg/m3	1007.26 kg/m3	1506.2 m/s and 1506 m/s and 1506.1 m/s	1512.5 m/s and 1512.3 m/s and 1512.2 m/s	0.905 mPa·s and 0.9049 mPa·s and 0.906 mPa·s	0.913
303.15 K	1001.83 kg/m3 [middle of 4 runs]	1005.78 kg/m3 and 1005.79 kg/m3	1518.2 m/s and 1518.1 m/s	1524.3 m/s and 1524.1 m/s and 1524 m/s	0.811 mPa·s [middle of 4 runs]	0.819
308.15 K	1000.11 kg/m3 [middle of 5 runs]	1004.12 kg/m3 and 1004.11 kg/m3	1528.7 m/s and 1528.6 m/s	1534.3 m/s [middle of 5 runs]	0.731 mPa·s and 0.7306 mPa·s and 0.732 mPa·s	0.739

O [water]
[2]
Conditions	viscosity
288.15 K	1.146 mPa·s
293.15 K	1.007 mPa·s and 1.004 mPa·s
298.15 K	0.893 mPa·s and 0.8929 mPa·s
303.15 K	0.797 mPa·s and 0.7965 mPa·s
308.15 K	0.719 mPa·s and 0.7187 mPa·s

O [water] + NCCCCC(=O)O
[1], m2 = 0
Conditions	viscosity [mPa·s]
288.15 K	1.146
293.15 K	1.004
298.15 K	0.893
303.15 K	0.797
308.15 K	0.719

O [water] + NCCCC(=O)O
[1], m2 = 0
Conditions	viscosity [mPa·s]
288.15 K	1.146
293.15 K	1.004
298.15 K	0.893
303.15 K	0.797
308.15 K	0.719

O [water] + NCCCCCC(=O)O
[1], m2 = 0
Conditions	viscosity [mPa·s]
288.15 K	1.146
293.15 K	1.004
298.15 K	0.893
303.15 K	0.797
308.15 K	0.719
